Assay results reported in patent US20050153872A1, “Methods and compositions for the treatment of infection” (priority 2004, published 2005).

Tests used:
[1] = tested on: Staphylococcus aureus ATCC 29213; test: MIC against challenge strain (Table 3); format: cell-based
[2] = tested on: ATCC 700802 VRE cells; test: Ph-EF protection of ATCC 700802 infected mice; format: in vivo; details: 5 animals
Experimental: To assess in vivo effects of Ph-EF, mice were injected with a fatal dosage of ATCC 700802 VRE cells intraperitoneally. […] Mice were inspected every 24 hours for 7-14 days. Dead mice would be counted as positive results.

[3] = tested on: Staphylococcus aureus ATCC 29213; test: In vivo protection of infected mice; parameters: species or system Kungming mice; details: i.p. infection 3.6 × 10^5 cfu/ml
Experimental: (§1) The following experiments were performed by Pharmacology Lab, National Sichuan antibiotic industril institute, Chengdu, Sichuan.
(§2) The agents described above were diluted with sterilized water to final concentrations of 10 mg/L, 5 mg/Land 2.5 mg/L. […]
(§3) 170 mice (Kungming mice: 18˜22 g, 85 males and 85 females) were randomly divided into four groups and injected with a fatal dosage of staphylococci, enterococcus and E. coli intraperitoneally. […] Mice were inspected every 24 hours for 7-14 days. Dead mice were counted as positive results. The results are depicted in Table 3 and FIGS. 4 and 5A-B.

[4] = tested on: Escherichia coli 02-1-65; test: In vivo protection of infected mice; parameters: species or system Kungming mice; details: i.p. infection 3.3 × 10^5 cfu/ml
Experimental: as §1, §2, §3

[5] = tested on: Enterococcus faecalis ATCC 700802; test: microbe, parasite or virus in culture; format: cell-based; details: Enterococcus faecalis, ATCC700802
[6] = tested on: Staphylococcus aureus MRSA BAA-42; test: microbe, parasite or virus in culture; format: cell-based; details: Staphylococcus aureus MRSA BAA-42
[7] = tested on: S. pneumoniae ATCC 700671 (Penicillin-resistant SP); details: 5 ug/ml
[8] = tested on: ATCC 700671 PRSP (S. pneumoniae); test: In vivo protection effects of Ph-SP; parameters: species or system mice; details: for Death distribution in hours 24 h / Death distribution in hours 48 h / Death distribution in hours 72 h / Death distribution in hours 96 h / Death distribution in hours 120 h / Death distribution in hours 144 h / Death distribution in hours 168 h / Number of Death: 5 animals
Experimental: To assess the in vivo effect of Ph-SP, mice were injected with ATCC 700671 PRSP intraperitoneally, followed by intravenous injections of PH-SP or controls.
One hour after administration of the fatal dose of ATCC 700671 PRSP (10^5 CFU/ml), each mouse was injected through the tail vein with test agents at three dosages as described in Table 4.

[9] = tested on: Staphylococcus aureus MRSA 02-18; test: microbe, parasite or virus in culture; format: cell-based; details: Staphylococcus aureus MRSA 02-18
[10] = tested on: Enterococcus faecalis ATCC 700802; test: In vivo protection of infected mice; parameters: species or system Kungming mice; details: mice, i.p. infection 8.0 × 10^6 cfu/ml
Experimental: as §1
(§4) The agents described above were diluted with sterilized water to final concentrations of 10 mg/L, 5 mg/Land 2.5 mg/L.
(§5) Staphylococcus aureus ATCC BAA-42(MRSA) and enterococcus faecalis ATCC 700802 were used as control strains.
as §3

[11] = tested on: Staphylococcus aureus MRSA 02-18; test: In vivo protection of infected mice; parameters: species or system Kungming mice; details: mice, i.p. infection 1.7 × 10^5 cfu/ml
Experimental: as §1, §4, §5, §3

[12] = tested on: Staphylococcus aureus MRSA BAA-42; test: In vivo protection of infected mice; parameters: species or system Kungming mice; details: mice, i.p. infection 5.5 × 10^5 cfu/ml
Experimental: as §1, §4, §5, §3

[13] = tested on: vancomycin-sensitive Enterococcus ATCC29212; details: 3 ug/ml; ATCC 29212 cells
[14] = tested on: Staphylococcus aureus MSSA strain (88); test: In vitro antibacterial activity (MIC), clinical isolates; format: cell-based; details: 88 MSSA clinical isolates
Experimental: (§6) The following experiments were performed by Lab. of Pharmacology, National Sichuan antibiotic industril institute, Chengdu, Sichuan.
(§7) The following agents were used to test the in vitro activity of Ph-SA:
(§8) All the bacterial strains used in the experiments were clinical isolates collected from Sichuan and Beijing in 2002 and identified by West China Hospital, Sichuan University and Chongqing University of Medical Sciences with API system. The following strains were used in the experiments detailed below: Staphylococcus aureus 168 strains (MRSA 80 strains and MSSA 88 strains) Staphylococcus epidermidis 46 strains (MRSE 25 strains and MSSE 21 strains), Enterococcus 20 strains, and Acenetobactor 20 strains. Staphylococcus aureus ATCC25923, 29213 and BAA-42 were used as control strains. Bacterial strains were contacted with one of the above described compounds and MIC50, MIC90 and MICScope were determined.

[15] = tested on: Staphylococcus aureus MRSA strain (80); test: as above; format: cell-based; details: 80 MRSA clinical isolates
Experimental: as §6, §7, §8

[16] = tested on: Staphylococcus epidermidis MSSE strain (21); test: as above; format: cell-based; details: 21 MSSE clinical isolates
Experimental: as §6, §7, §8

[17] = tested on: Enterococcus (20); test: as above; format: cell-based; details: 20 Enterococcus clinical isolates
Experimental: as §6, §7, §8

[18] = tested on: Escherichia coli 02-1-65; test: MIC against challenge strain (Table 3); format: cell-based
[19] = tested on: S. pneumoniae BQIOC 31201 (non-resistant)
[20] = tested on: MRSA strain ATCC BAA-42; test: Electron micrographs of bactericidal effects; format: cell-based, S. aureus; details: Ph-SA 50 μg/ml 0.5 hrs; wild type colicin Ia 50 μg/ml 2 hrs; AgrDI 10 μg/ml 2 hrs
From the text: Electron Micrographs of Bactericidal Effects of Ph-SA1 Against ATCC BAA-42 MRSA Strain Cells (1% Phosphotungstic Acid. 25,000×)

[21] = 1st Time, i.v. treatment after one hour
[22] = 2nd Time (value in parentheses), i.v. treatment

sodium penicillin
MIC [1]: 16 µg/mL
Death distribution in hours 24 h ([2]; 5 mg/kg intravenously): 0
Death distribution in hours 48 h ([2]; 5 mg/kg intravenously): 1
Death distribution in hours 72 h ([2]; 5 mg/kg intravenously): 1
Death distribution in hours 96 h ([2]; 5 mg/kg intravenously): 1
Death distribution in hours 120 h ([2]; 5 mg/kg intravenously): 0
Death distribution in hours 144 h ([2]; 5 mg/kg intravenously): 0
Death distribution in hours 168 h ([2]; 5 mg/kg intravenously): 0
Number of Death ([2]; 5 mg/kg intravenously): 3
Death distribution in hours 24 h ([2]; 10 mg/kg intravenously): 0
Death distribution in hours 48 h ([2]; 10 mg/kg intravenously): 0
Death distribution in hours 72 h ([2]; 10 mg/kg intravenously): 0
Death distribution in hours 96 h ([2]; 10 mg/kg intravenously): 0
Death distribution in hours 120 h ([2]; 10 mg/kg intravenously): 0
Death distribution in hours 144 h ([2]; 10 mg/kg intravenously): 0
Death distribution in hours 168 h ([2]; 10 mg/kg intravenously): 0
Number of Death ([2]; 10 mg/kg intravenously): 0
ED50 [3, 21]: 10.75 mg/kg
ED50 [3, 22]: (9.84) mg/kg
ED50 [4, 21]: >30.77 mg/kg
ED50 [4, 22]: (>30.77) mg/kg
MIC [5]: 2 µg/mL
MIC [6]: 8 µg/mL
inhibition of cell growth [7]: did not have a growth inhibitory effect
Death distribution in hours 24 h ([8]; 5 mg/kg tail vein): 3
Death distribution in hours 48 h ([8]; 5 mg/kg tail vein): 0
Death distribution in hours 72 h ([8]; 5 mg/kg tail vein): 0
Death distribution in hours 96 h ([8]; 5 mg/kg tail vein): 0
Death distribution in hours 120 h ([8]; 5 mg/kg tail vein): 0
Death distribution in hours 144 h ([8]; 5 mg/kg tail vein): 0
Death distribution in hours 168 h ([8]; 5 mg/kg tail vein): 0
Number of Death ([8]; 5 mg/kg tail vein): 3
Death distribution in hours 24 h ([8]; 10 mg/kg tail vein): 3
Death distribution in hours 48 h ([8]; 10 mg/kg tail vein): 0
Death distribution in hours 72 h ([8]; 10 mg/kg tail vein): 0
Death distribution in hours 96 h ([8]; 10 mg/kg tail vein): 0
Death distribution in hours 120 h ([8]; 10 mg/kg tail vein): 0
Death distribution in hours 144 h ([8]; 10 mg/kg tail vein): 0
Death distribution in hours 168 h ([8]; 10 mg/kg tail vein): 0
Number of Death ([8]; 10 mg/kg tail vein): 3
MIC [9]: >16 µg/mL
ED50 [10, 21]: 3.16 mg/kg
ED50 [10, 22]: (3.08) mg/kg
ED50 [11, 21]: 7.28 mg/kg
ED50 [11, 22]: (11.33) mg/kg
ED50 [12, 21]: >10 mg/kg
ED50 [12, 22]: (14.71) mg/kg
inhibition of cell growth [13]: inhibited cell growth
MIC50 [14]: 8 µg/mL
MIC90 [14]: 64 µg/mL
MIC Scope [15]: 1˜128 mg/l
MIC50 [16]: 4 µg/mL
MIC90 [16]: 32 µg/mL
MIC Scope [16]: 0.125˜128 mg/l
MIC50 [17]: 32 µg/mL
MIC90 [17]: 64 µg/mL
MIC [18]: >128 µg/mL

B1: Ph-SP: Colicin Ia linked to ComC pheromone of S. pneumoniae (protein)
chain: SDPVARGITNPGAESLGYDSDGHEIMAVASPIYVASNPPRVASPVFHGTPPAWSSFGNKTIWGGNEWVASPDSPTRSDIEKRDKEITAYKNTLSAQQKENENKRTEAGKRLSAAIAAREKDENTLKTLRAGNADAADITRQEFRLLQAELREYGFRTEIAGYDALRLHTESRMLFADADSLRISPREARSLIEQAEKRQKDAQNADKKAADMLAEYERRKGILDTRLSELEKNGGAALAVLDAQQARLLGQQTRNDRAISEARNKLSSVTESLNTARNALTRAEQQLTQQKNTPDGKTIVSPEKFPGRSSTNHSIVVSGDPRFAGTIKITTSAVIDNRANLNYLLSHSGLDYKRNILNDRNPVVTEDVEGDKKIYNAEVALAEWDKLRQRLLDARNKITSAESAVASNSARNNLSARTNEQKHANDALNALLKEKENIRNQLSGINQKIAEEKRKQDELKATKDAINFTTEFLKSVSEKYGAKAEQLAREMAGQAKGKKIRNVEEALKTYEKYRADINKKINAKDRAAIAAALESVKLSDISSNLNRFSRGLGYAGKFTSLADWITEFGKAVARGTENWRPLFVKTETIIAGNAATALVALALVFSILTGSALGIIGYGLLMAVTGALIDESLVEKANKFWGIEMRLSKFFRDFILQRKK
modifications: colicin Ia attached to streptococcus pneumoniae polypeptide pheromone
bactericidal effect relative to penicillin on a molar basis ([19]; Ph-SP 70,000 daltons vs penicillin 350 daltons): two hundred fold greater
inhibition of cell growth [7]: more than 90%
Death distribution in hours 24 h ([8]; 5 mg/kg tail vein): 0
Death distribution in hours 48 h ([8]; 5 mg/kg tail vein): 1
Death distribution in hours 72 h ([8]; 5 mg/kg tail vein): 0
Death distribution in hours 96 h ([8]; 5 mg/kg tail vein): 0
Death distribution in hours 120 h ([8]; 5 mg/kg tail vein): 0
Death distribution in hours 144 h ([8]; 5 mg/kg tail vein): 0
Death distribution in hours 168 h ([8]; 5 mg/kg tail vein): 0
Number of Death ([8]; 5 mg/kg tail vein): 1
Death distribution in hours 24 h ([8]; 10 mg/kg tail vein): 0
Death distribution in hours 48 h ([8]; 10 mg/kg tail vein): 0
Death distribution in hours 72 h ([8]; 10 mg/kg tail vein): 0
Death distribution in hours 96 h ([8]; 10 mg/kg tail vein): 0
Death distribution in hours 120 h ([8]; 10 mg/kg tail vein): 0
Death distribution in hours 144 h ([8]; 10 mg/kg tail vein): 0
Death distribution in hours 168 h ([8]; 10 mg/kg tail vein): 0
Number of Death ([8]; 10 mg/kg tail vein): 0
protection against infection in mice ([8]; ATCC 700671 PRSP i.p., agent i.v.): prevents streptococcus pneumoniae infection in mice

B2: wild type colicin Ia: wild type colicin Ia, channel forming polypeptide without targeting agent (protein)
chain: MSDPVARGITNPGAESLGYDSDGHEIMAVASPIYVASNPPRVASPVFHGTPPAWSSFGNKTIWGGNEWVASPDSPTRSDIEKRDKEITAYKNTLSAQQKENENKRTEAGKRLSAAIAAREKDENTLKTLRAGNADAADITRQEFRLLQAELREYGFRTEIAGYDALRLHTESRMLFADADSLRISPREARSLIEQAEKRQKDAQNADKKAADMLAEYERRKGILDTRLSELEKNGGAALAVLDAQQARLLGQQTRNDRAISEARNKLSSVTESLNTARNALTRAEQQLTQQKNTPDGKTIVSPEKFPGRSSTNHSIVVSGDPRFAGTIKITTSAVIDNRANLNYLLSHSGLDYKRNILNDRNPVVTEDVEGDKKIYNAEVALAEWDKLRQRLLDARNKITSAESAVASNSARNNLSARTNEQKHANDALNALLKEKENIRNQLSGINQKIAEEKRKQDELKATKDAINFTTEFLKSVSEKYGAKAEQLAREMAGQAKGKKIRNVEEALKTYEKYRADINKKINAKDRAAIAAALESVKLSDISSNLNRFSRGLGYAGKFTSLADWITEFGKAVARGTENWRPLFVKTETIIAGNAATALVALALVFSILTGSALGIIGYGLLMAVTGALIDESLVEKANKFWGI
modifications: E. coli
notes: wild type colicin Ia, channel forming polypeptide without targeting agent
inhibition of cell growth ([19]; 5 ug/ml, S. pneumoniae BQIOC 31201): did not inhibit growth
bactericidal effect / effect on cell growth (electron micrographs) [20]: no effect on cell growth
inhibition of cell growth [13]: failed to inhibit growth
